# Laboratory results reported in ChEMBL document CHEMBL1201862, “PubChem BioAssay data set” (2004).
#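 These data come from cells grown in 96-well plates and exposed to compound for 48 hours at five concentrations. Here, GI50 denotes the concentration required for 50% inhibition of growth.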 The source made the active and inactive calls. Cut-off read from the data, not from the text of the source: active = GI50 up to about 1.1 µM and inactive = higher.
# What was measured:
# Assay in all cases: NCI-60 cell line screen, 48 h
# [1] = system: ACHN
# [2] = system: UACC-62
# [3] = system: A549
# [4] = system: DU-145
# [5] = system: OVCAR-3
# [6] = system: HCT-116
# [7] = system: OVCAR-5
# [8] = system: HT-29
# [9] = system: CAKI-1
# [10] = system: 786-0
# [11] = system: OVCAR-4
# [12] = system: Malme-3M
# [13] = system: SF-295
# [14] = system: RXF 393
# [15] = system: MDA-MB-435
# [16] = system: KM12
# [17] = system: T47D
# [18] = system: SK-MEL-5
# [19] = system: SNB-75
# [20] = system: SF-268
SMILES,GI50 [1],GI50 [2],GI50 [3],GI50 [4],GI50 [5],GI50 [6],GI50 [7],GI50 [8],GI50 [9],GI50 [10],GI50 [11],GI50 [12],GI50 [13],GI50 [14],GI50 [15],GI50 [16],GI50 [17],GI50 [18],GI50 [19],GI50 [20]
O=C(O)CNCc1c2ccccc2nc2ccccc12,31.1 µM (inactive),44.7 µM (inactive),43.4 µM (inactive),> 100 µM (inactive),38.6 µM (inactive),12.1 µM (inactive),> 85.9 µM (inactive),27.3 µM (inactive),35.7 µM (inactive),36 µM (inactive),31.7 µM (inactive),> 74.5 µM (inactive),48.4 µM (inactive),32.4 µM (inactive),36.6 µM (inactive),32.3 µM (inactive),31.7 µM (inactive),25.7 µM (inactive),32.8 µM (inactive),32.7 µM (inactive)
C/C(=C\[C@H]1C[C@@H]([C@@H]2CC[C@]34C[C@]23C=C[C@@H]2[C@@]3(C)CC=C5C[C@@H](c6ccccc6)OC[C@]5(C)[C@@H]3C[C@@H](O)[C@]24C)C(=O)O1)CO [DICHAPETALIN A],3.33 µM (inactive),9.02 µM (inactive),2.79 µM (inactive),10.2 µM (inactive),3.52 µM (inactive),1.14 µM (inactive),9.82 µM (inactive),2.01 µM (inactive),2.08 µM (inactive),4.38 µM (inactive),3.03 µM (inactive),3.56 µM (inactive),1.34 µM (inactive),77.8 µM (inactive),2.48 µM (inactive),2.45 µM (inactive),2.84 µM (inactive),0.286 µM (active),3.55 µM (inactive),6.75 µM (inactive)
Oc1ccccc1/C=N/N1C(=S)N(c2ccccc2)C(=N\c2ccccc2)/C1=N/c1ccccc1,2.41 µM (inactive),13.9 µM (inactive),13.9 µM (inactive),16.9 µM (inactive),15 µM (inactive),11.6 µM (inactive),34 µM (inactive),3.63 µM (inactive),12.4 µM (inactive),2.72 µM (inactive),1.27 µM (inactive),22.4 µM (inactive),8.39 µM (inactive),5.41 µM (inactive),22.3 µM (inactive),46.3 µM (inactive),15.9 µM (inactive),18.2 µM (inactive),3.21 µM (inactive),12.1 µM (inactive)
Cn1c2ccccc2c2[nH]c3ccccc3c(=O)c21,> 100 µM (inactive),> 100 µM (inactive),> 100 µM (inactive),> 100 µM (inactive),> 100 µM (inactive),53.3 µM (inactive),> 100 µM (inactive),> 100 µM (inactive),> 100 µM (inactive),> 100 µM (inactive),> 10 µM (inactive),> 100 µM (inactive),> 100 µM (inactive),> 100 µM (inactive),> 100 µM (inactive),> 100 µM (inactive),43 µM (inactive),46.2 µM (inactive),69.2 µM (inactive),> 100 µM (inactive)
Cc1ccc([N+](=O)[O-])c2c(NCC(O)CO)ccnc12 (stereo not given),57.5 µM (inactive),30.3 µM (inactive),25.4 µM (inactive),51.4 µM (inactive),36.1 µM (inactive),44.4 µM (inactive),> 100 µM (inactive),30.7 µM (inactive),54 µM (inactive),30.5 µM (inactive),52.8 µM (inactive),16.4 µM (inactive),42.1 µM (inactive),45.9 µM (inactive),71.6 µM (inactive),32.2 µM (inactive),49.7 µM (inactive),18.6 µM (inactive),> 100 µM (inactive),60.4 µM (inactive)
O=C(c1cc2ccccc2[nH]1)N1C2CCC1CN(CCOC(c1ccc(F)cc1)c1ccc(F)cc1)CC2 (stereo not given),95.1 µM (inactive),52 µM (inactive),34.9 µM (inactive),> 100 µM (inactive),9.02 µM (inactive),5.09 µM (inactive),> 100 µM (inactive),23.8 µM (inactive),6.81 µM (inactive),> 100 µM (inactive),> 100 µM (inactive),> 100 µM (inactive),9.89 µM (inactive),3.97 µM (inactive),> 100 µM (inactive),60.3 µM (inactive),5.28 µM (inactive),5.77 µM (inactive),> 100 µM (inactive),8.28 µM (inactive)
